{
  "source": "patent US9555014B2",
  "about": "“Therapeutic regimens” (Radius Health, Inc., priority 2010, dated 2017)",
  "key": {"[1]": {"assay": "Phase 2a study: trough and peak plasma drug levels", "type": "in vivo, human (postmenopausal women)", "conditions": "for concentration at 8 day / concentration at 15 day / concentration at 29 day: female, human, plasma; for concentration at 29 day: Day 29, ITT", "excerpt": "This is a randomized, placebo-controlled, double-blind, parallel-group, Phase 2, multi-center, dose-finding study to evaluate the effects of (R)-6-(2-(ethyl(4-(2-(ethylamino)ethyl)benzyl)amino)-4-methoxyphenyl)-5,6,7,8-tetrahydronaphthalen-2-ol dihydrochloride in the treatment of vasomotor symptoms in postmenopausal women.\nA total of 100 eligible patients will be randomized to receive one of 5 blinded treatment regimens. (R)-6-(2-(ethyl(4-(2-(ethylamino)ethyl)benzyl)amino)-4-methoxyphenyl)-5,6,7,8-tetrahydronaphthalen-2-ol dihydrochloride at doses 0, 10, 25, 50 or 100 mg will be dosed for 28-days.\n(R)-6-(2-(ethyl(4-(2-(ethylamino)ethyl)benzyl)amino)-4-methoxyphenyl)-5,6,7,8-tetrahydronaphthalen-2-ol dihydrochloride was provided by sponsor in capsule form for oral administration. All doses (0, 10, 25, 50 and 100 mg) were provided as identical presentations. Each patient was provided with 2 containers of 28-capsules each at the start of treatment and took one capsule from each container every day for 28-days. Placebo contained the same excipients as active medication, but without (R)-6-(2-(ethyl(4-(2-(ethylamino)ethyl)benzyl)amino)-4-methoxyphenyl)-5,6,7,8-tetrahydronaphthalen-2-ol dihydrochloride. The patients were instructed to take the capsules orally in the fasted state (morning).\nAll efficacy endpoints were to be analyzed for the ITT and PP populations, with the exception of the drug levels (analyzed for the ITT population only). Safety endpoints were to be analyzed for the Safety/ITT population.\nValues for ranges of steady state trough levels and steady state Cmax can be derived from Tables 4 and 5. Steady state values are the values listed for days 8 and 15. The ranges were derived from the mean number listed in the table plus or minus one standard deviation (the number in parenthesis after each mean value). For example a steady state trough level ranging from 0.11 ng/mL to 0.79 ng/mL is derived from Table 4 by taking the trough level for 10 mg, 0.45 ng/mL, adding 0.34 to get the upper value of 0.79 and subtracting 0.34 to get the lover value of 0.11. Other ranges for steady state trough levels and ranges for Cmax can be similarly derived from the data in Tables 4 and 5."}, "endometrium": {"tested_on": "endometrium", "assay": "Preclinical rat models measuring estrogenic agonist effects on the endometrium", "type": "in vivo", "excerpt": "The results of a phase 2a clinical study assessing the effects of the selective estrogen receptor modulator (SERM) (R)-6-(2-(ethyl(4-(2-(ethylamino)ethyl)benzyl)amino)-4-methoxyphenyl)-5,6,7,8-tetrahydronaphthalen-2-ol on women suffering from hot flushes are reported herein."}},
  "note": "Where a name gives a salt, the structure may show the parent alone. Read-outs that look alike come from different tables or passages of the source.",
  "data": [
    {"compound": "CCNCCc1ccc(CN(CC)c2cc(OC)ccc2[C@@H]2CCc3cc(O)ccc3C2)cc1", "note": "[drug, (R)-6-(2-(ethyl(4-(2-(ethylamino)ethyl)benzyl)amino)-4-methoxyphenyl)-5,6,7,8-tetrahydronaphthalen-2-ol dihydrochloride]", "values": [
      {"measurement": "Peak Level of drug", "setting": "[1]; 10 mg daily PO, Day 1, ITT, mean (SD)", "value": "0.56 (0.34) ng/mL"},
      {"measurement": "Peak Level of drug", "setting": "[1]; 10 mg daily PO, Day 8, ITT, mean (SD)", "value": "0.92 (0.52) ng/mL"},
      {"measurement": "Peak Level of drug", "setting": "[1]; 10 mg daily PO, Day 15, ITT, mean (SD)", "value": "0.92 (0.69) ng/mL"},
      {"measurement": "Peak Level of drug", "setting": "[1]; 25 mg daily PO, Day 1, ITT, mean (SD)", "value": "1.41 (0.63) ng/mL"},
      {"measurement": "Peak Level of drug", "setting": "[1]; 25 mg daily PO, Day 8, ITT, mean (SD)", "value": "2.53 (0.74) ng/mL"},
      {"measurement": "Peak Level of drug", "setting": "[1]; 25 mg daily PO, Day 15, ITT, mean (SD)", "value": "2.97 (1.09) ng/mL"},
      {"measurement": "Peak Level of drug", "setting": "[1]; 50 mg daily PO, Day 1, ITT, mean (SD)", "value": "2.83 (1.72) ng/mL"},
      {"measurement": "Peak Level of drug", "setting": "[1]; 50 mg daily PO, Day 8, ITT, mean (SD)", "value": "6.36 (2.58) ng/mL"},
      {"measurement": "Peak Level of drug", "setting": "[1]; 50 mg daily PO, Day 15, ITT, mean (SD)", "value": "6.22 (3.46) ng/mL"},
      {"measurement": "Peak Level of drug", "setting": "[1]; 100 mg daily PO, Day 1, ITT, mean (SD)", "value": "8.39 (4.04) ng/mL"},
      {"measurement": "Peak Level of drug", "setting": "[1]; 100 mg daily PO, Day 8, ITT, mean (SD)", "value": "15.47 (7.14) ng/mL"},
      {"measurement": "Peak Level of drug", "setting": "[1]; 100 mg daily PO, Day 15, ITT, mean (SD)", "value": "12.76 (5.28) ng/mL"},
      {"measurement": "concentration at 8 day", "setting": "[1]; oral, 10 mg, derived from Table 4 (0.45 ± 0.34, Day 8), read-out: steady state trough level range (mean plus or minus one standard deviation)", "value": "0.11 to 0.79", "unit": "ng/mL"},
      {"measurement": "concentration at 8 day", "setting": "[1]; 10 mg daily PO, Day 8, ITT, mean (SD), read-out: Mean Trough Level of Drug", "value": 0.45, "unit": "ng/mL"},
      {"measurement": "concentration at 15 day", "setting": "[1]; 10 mg daily PO, Day 15, ITT, mean (SD), read-out: Mean Trough Level of Drug", "value": 0.49, "unit": "ng/mL"},
      {"measurement": "concentration at 29 day", "setting": "[1]; 10 mg daily PO, mean (SD), read-out: Mean Trough Level of Drug", "value": 0.34, "unit": "ng/mL"},
      {"measurement": "concentration at 8 day", "setting": "[1]; 25 mg daily PO, Day 8, ITT, mean (SD), read-out: Mean Trough Level of Drug", "value": 1.33, "unit": "ng/mL"},
      {"measurement": "concentration at 15 day", "setting": "[1]; 25 mg daily PO, Day 15, ITT, mean (SD), read-out: Mean Trough Level of Drug", "value": 1.49, "unit": "ng/mL"},
      {"measurement": "concentration at 29 day", "setting": "[1]; 25 mg daily PO, mean (SD), read-out: Mean Trough Level of Drug", "value": 1.18, "unit": "ng/mL"},
      {"measurement": "concentration at 8 day", "setting": "[1]; 50 mg daily PO, Day 8, ITT, mean (SD), read-out: Mean Trough Level of Drug", "value": 3.11, "unit": "ng/mL"},
      {"measurement": "concentration at 15 day", "setting": "[1]; 50 mg daily PO, Day 15, ITT, mean (SD), read-out: Mean Trough Level of Drug", "value": 3.39, "unit": "ng/mL"},
      {"measurement": "concentration at 29 day", "setting": "[1]; 50 mg daily PO, mean (SD), read-out: Mean Trough Level of Drug", "value": 3.23, "unit": "ng/mL"},
      {"measurement": "concentration at 8 day", "setting": "[1]; 100 mg daily PO, Day 8, ITT, mean (SD), read-out: Mean Trough Level of Drug", "value": 6.91, "unit": "ng/mL"},
      {"measurement": "concentration at 15 day", "setting": "[1]; 100 mg daily PO, Day 15, ITT, mean (SD), read-out: Mean Trough Level of Drug", "value": 6.66, "unit": "ng/mL"},
      {"measurement": "concentration at 29 day", "setting": "[1]; 100 mg daily PO, mean (SD), read-out: Mean Trough Level of Drug", "value": 6.03, "unit": "ng/mL"},
      {"measurement": "estrogen agonist stimulation effects on the endometrium", "setting": "endometrium", "value": "negligible estrogen agonist stimulation effects"}
    ]}
  ]
}
